Results reported in PubChem BioAssay AID2060328 (Molecular Pharmacology Branch, DTP, NCI, 2025).

Test system: MDA-MB-231 multicell spheroids, viability (%T/C)
Test: Anticancer human tumor MDA-MB-231 cell line growth inhibition [IpAb];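 also: viability read after seven days of drug exposure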
Conditions: for IC50: curve of first compound; for viability, T/C: stronger effect = lower value; active = viability on the fitted dose curve at most 10% of control; inactive = the rest
From the text: Combinatorial screen of targeted agents with ipatasertib and abemaciclib in multi-cell type tumor spheroids
A high-throughput screen of multi-cell type tumor spheroids was designed to identify active combinations of targeted small molecules and ipatasertib or abemaciclib. Complex spheroids include a stromal component modeled by human endothelial cells (HUVEC) and fibroblasts modeled by human mesenchymal stem cells (MSCs). The concentration ranges selected for each drug and investigational agent were based upon clinically achievable concentrations if the clinical Cmax of the agent was known.
Compounds. The drugs and investigational agents: ipatasertib (NSC767898), abemaciclib(NSC768073), selumetinib (NSC741078), trametinib (758246), adavosertib (NSC754352), everolimus (NSC733504), sapanisertib (NSC764658), vemurafenib (NSC761431), venetoclax (NSC766270), copanlisib (NSC809693), apelisib (NSC765974), palbociblib (NSC758247), vemurafenib (NSC761431), dabrafenib (NSC764134), ravoxertinib (NSC781343), BMS-387032 (NSC767048), sotorasib (NSC818433), talazoparib (NSC767125) and afursertib (NSC778305), were obtained from the National Cancer Institute (NCI) Developmental Therapeutics Program Chemical Repository. The FDA-approved anticancer drug set is available from the NCI Developmental Therapeutics Program. […] The stock solutions were prepared in dimethyl sulfoxide (DMSO, Sigma-Aldrich, St. Louis, MO, cat. D2650) at 800-fold the tested concentration and stored at -70 degrees C prior to their use. All drugs and investigational agents were tested over a range starting from a high concentration at or near the clinical Cmax and decreasing in half-log increments. If the clinical Cmax for an agent had not been determined, the highest concentration tested was 10 microM.
NCI60 Cell Culture. NCI60 cell lines were obtained from the NCI Developmental Therapeutics Program Tumor Repository. For each lot of cells, the Repository performed Applied Biosystems AmpFLSTR Identifiler testing with PCR amplification to confirm consistency with the published Identifier STR profile for each cell line. Cells were kept in continuous culture for no more than 20 passages. The optimal seeding densities for each of the cell lines at each time point assessed were determined prior to performing the concentration response studies. Briefly, the NCI60 human tumor lines were grown as monolayers in RPMI 1640 medium supplemented with 10% FBS and 2 mmol/L L-glutamine.
An additional 9 lines were from the NCI60 cell line panel including MDA-MB-231 breast carcinoma, MDA-MB-468 breast carcinoma, MCF7 breast carcinoma, Hs578T breast carcinoma, MALME-3M melanoma, SK-MEL-2 melanoma, SK-OV-3 ovarian carcinoma, DU-145 prostate carcinoma, PC-3 prostate carcinoma, all cell lines along with major genetic alterations are listed on Table 2. Pooled donor human umbilical vein endothelial cells (HUVEC, Lonza, cat. CC-2519) and human mesenchymal stem cells (hMSC, Lonza, cat. PT-2501) were purchased from Lonza (Walkersville, MD).
PDMR cell lines were grown in complete medium (DC medium): Dulbecco's modified Eagle's medium (DMEM)/F12 supplemented with 5% fetal bovine serum (FBS), 2 mM L-glutamine, 100 U/mL penicillin and 100 µg/ml streptomycin, 0.4 µg/ml hydrocortisone, 10 ng/ml epidermal growth factor (EGF) recombinant human protein, 24 µg/mL adenine, and 0.1 mg/mL primocin. During culture from frozen stock vials, PDMR cells were cultured in the same medium containing 10 µM Y-27632 (see Table 3). The PDCs were cultured in complete DMEM/F12 media without 10 microM Y-27632 dihydrochloride for at least two passages prior to the screen. The pooled donor HUVEC and hMSC were cultured in endothelial cell growth medium 2 (PromoCell, Heidelberg, Germany, cat. C-22011) and mesenchymal stem cell growth medium 2 (PromoCell, cat. C-28009), respectively. For all experiments, HUVEC and hMSC were used at passages </=5.
[…]

[1] = second compound 0.1 µM, first compound 0.0316 µM
[2] = second compound 0.1 µM, first compound 0.1 µM
[3] = second compound 0.1 µM, first compound 0.316 µM
[4] = second compound 0.1 µM, first compound 1 µM
[5] = second compound 0.316 µM, first compound 0.0316 µM
[6] = second compound 0.316 µM, first compound 0.1 µM
[7] = second compound 0.316 µM, first compound 0.316 µM
[8] = second compound 0.316 µM, first compound 1 µM
[9] = second compound 1 µM, first compound 0.0316 µM
[10] = second compound 1 µM, first compound 0.1 µM
[11] = second compound 1 µM, first compound 0.316 µM
[12] = second compound 1 µM, first compound 1 µM
[13] = second compound 3.16 µM, first compound 0.0316 µM
[14] = second compound 3.16 µM, first compound 0.1 µM
[15] = second compound 3.16 µM, first compound 0.316 µM
[16] = second compound 3.16 µM, first compound 1 µM
[17] = second compound 10 µM, first compound 0.0316 µM
[18] = second compound 10 µM, first compound 0.1 µM
[19] = second compound 10 µM, first compound 0.316 µM
[20] = second compound 10 µM, first compound 1 µM

CC(=O)c1c(C)c2cnc(Nc3ccc(N4CCNCC4)cn3)nc2n(C2CCCC2)c1=O + CC(C)NCC(C(=O)N1CCN(c2ncnc3c2C(C)CC3O)CC1)c1ccc(Cl)cc1
1.28 nM: IC50 (second compound 3.16 µM)
7.21 nM: IC50 (second compound 1 µM)
inactive: viability, T/C (second compound 0.1 µM, first compound 0.000949 µM) 93.3% | viability, T/C (second compound 0.1 µM, first compound 0.003 µM) 89.6% | viability, T/C (second compound 0.1 µM, first compound 0.00949 µM) 67.7% | viability, T/C (second compound 0.1 µM, first compound 0.03 µM) 53% | viability, T/C (second compound 0.1 µM, first compound 0.0949 µM) 40.3% | viability, T/C (second compound 0.1 µM, first compound 0.3 µM) 35% | viability, T/C (second compound 0.316 µM, first compound 0.000949 µM) 82.4% | viability, T/C (second compound 0.316 µM, first compound 0.003 µM) 73.8% | viability, T/C (second compound 0.316 µM, first compound 0.00949 µM) 58.9% | viability, T/C (second compound 0.316 µM, first compound 0.03 µM) 42% | viability, T/C (second compound 0.316 µM, first compound 0.0949 µM) 34.4% | viability, T/C (second compound 0.316 µM, first compound 0.3 µM) 32% | viability, T/C (second compound 1 µM, first compound 0.000949 µM) 69% | viability, T/C (second compound 1 µM, first compound 0.003 µM) 60.9% | viability, T/C (second compound 1 µM, first compound 0.00949 µM) 45.9% | viability, T/C (second compound 1 µM, first compound 0.03 µM) 36% | viability, T/C (second compound 1 µM, first compound 0.0949 µM) 26.9% | viability, T/C (second compound 1 µM, first compound 0.3 µM) 26.3% | viability, T/C (second compound 3.16 µM, first compound 0.000949 µM) 50.4% | viability, T/C (second compound 3.16 µM, first compound 0.003 µM) 47.5% | viability, T/C (second compound 3.16 µM, first compound 0.00949 µM) 39.5% | viability, T/C (second compound 3.16 µM, first compound 0.03 µM) 29.1% | viability, T/C (second compound 3.16 µM, first compound 0.0949 µM) 25.5% | viability, T/C (second compound 3.16 µM, first compound 0.3 µM) 22.2% | viability, T/C (second compound 10 µM, first compound 0.000949 µM) 38.5% | viability, T/C (second compound 10 µM, first compound 0.003 µM) 33.9% | viability, T/C (second compound 10 µM, first compound 0.00949 µM) 27.2% | viability, T/C (second compound 10 µM, first compound 0.03 µM) 24.7% | viability, T/C (second compound 10 µM, first compound 0.0949 µM) 22.4% | viability, T/C (second compound 10 µM, first compound 0.3 µM) 20.3%
35.1 nM: IC50 (second compound 0.1 µM)
17.3 nM: IC50 (second compound 0.316 µM)
< 0.949 nM: IC50 (second compound 10 µM)

COc1c(OCCCN2CCOCC2)ccc2c3n(c(=NC(=O)c4cnc(N)nc4)nc12)CCN3 + CC(C)NCC(C(=O)N1CCN(c2ncnc3c2C(C)CC3O)CC1)c1ccc(Cl)cc1
50.9 nM: IC50 (second compound 0.1 µM)
inactive: viability, T/C (second compound 0.1 µM, first compound 0.00316 µM) 85.3% | viability, T/C (second compound 0.1 µM, first compound 0.01 µM) 70.1% | viability, T/C [1] 57.4% | viability, T/C [2] 42.3% | viability, T/C [3] 34.1% | viability, T/C [4] 40.3% | viability, T/C (second compound 0.316 µM, first compound 0.00316 µM) 71% | viability, T/C (second compound 0.316 µM, first compound 0.01 µM) 59.4% | viability, T/C [5] 51.7% | viability, T/C [6] 37.5% | viability, T/C [7] 31.7% | viability, T/C [8] 41% | viability, T/C (second compound 1 µM, first compound 0.00316 µM) 62.6% | viability, T/C (second compound 1 µM, first compound 0.01 µM) 54.4% | viability, T/C [9] 43.9% | viability, T/C [10] 36.3% | viability, T/C [11] 28.2% | viability, T/C [12] 41.9% | viability, T/C (second compound 3.16 µM, first compound 0.00316 µM) 52.1% | viability, T/C (second compound 3.16 µM, first compound 0.01 µM) 47% | viability, T/C [13] 37.1% | viability, T/C [14] 30.4% | viability, T/C [15] 25.2% | viability, T/C [16] 32.5% | viability, T/C (second compound 10 µM, first compound 0.00316 µM) 33.6% | viability, T/C (second compound 10 µM, first compound 0.01 µM) 31.9% | viability, T/C [17] 28.2% | viability, T/C [18] 22.6% | viability, T/C [19] 20% | viability, T/C [20] 31.1%
4.7 nM: IC50 (second compound 3.16 µM)
< 3.16 nM: IC50 (second compound 10 µM)
16.1 nM: IC50 (second compound 1 µM)
27.7 nM: IC50 (second compound 0.316 µM)

Cc1nc(NC(=O)N2CCCC2C(N)=O)sc1-c1ccnc(C(C)(C)C(F)(F)F)c1 (stereo not given) + CC(C)NCC(C(=O)N1CCN(c2ncnc3c2C(C)CC3O)CC1)c1ccc(Cl)cc1
inactive: viability, T/C [1] 84.1% | viability, T/C [2] 71.3% | viability, T/C [3] 64.7% | viability, T/C [4] 71.8% | viability, T/C (second compound 0.1 µM, first compound 3.16 µM) 71.4% | viability, T/C (second compound 0.1 µM, first compound 10 µM) 62.5% | viability, T/C [5] 74.8% | viability, T/C [6] 63.7% | viability, T/C [7] 58.3% | viability, T/C [8] 59.9% | viability, T/C (second compound 0.316 µM, first compound 3.16 µM) 64.8% | viability, T/C (second compound 0.316 µM, first compound 10 µM) 60.8% | viability, T/C [9] 63.1% | viability, T/C [10] 58.7% | viability, T/C [11] 55.3% | viability, T/C [12] 55.3% | viability, T/C (second compound 1 µM, first compound 3.16 µM) 58% | viability, T/C (second compound 1 µM, first compound 10 µM) 55.8% | viability, T/C [13] 50.7% | viability, T/C [14] 45.8% | viability, T/C [15] 41.4% | viability, T/C [16] 46% | viability, T/C (second compound 3.16 µM, first compound 3.16 µM) 46.1% | viability, T/C (second compound 3.16 µM, first compound 10 µM) 42.6% | viability, T/C [17] 35.2% | viability, T/C [18] 33.1% | viability, T/C [19] 31.6% | viability, T/C [20] 33.1% | viability, T/C (second compound 10 µM, first compound 3.16 µM) 37.8% | viability, T/C (second compound 10 µM, first compound 10 µM) 32.8%
> 10000 nM: IC50 (second compound 0.1 µM) | IC50 (second compound 0.316 µM) | IC50 (second compound 1 µM)
< 31.6 nM: IC50 (second compound 3.16 µM) | IC50 (second compound 10 µM)
